Source: the NIST ThermoML archive (doi:10.1021/je200856f)
Numbers after ± are expanded uncertainties.

Assay: mn = molality of the nth substance listed, in mol/kg
Conditions: 101 kPa, Liquid; for mass density: Vibrating tube method; for electrical conductivity: Wheatstone bridge equipment

C[N+](C)(C)CCO.[Cl-] [choline chloride] + O
Conditions	electrical conductivity [S/m]	mass density [kg/m3]	viscosity [mPa·s]
278.15 K, m1 = 0.0293	–	–	1.527 ± 0.048
278.15 K, m1 = 0.054	–	1000.97 ± 0.23	–
278.15 K, m1 = 0.058	–	–	1.551 ± 0.049
278.15 K, m1 = 0.1087	–	1001.95 ± 0.24	–
278.15 K, m1 = 0.1113	–	–	1.515 ± 0.048
278.15 K, m1 = 0.2495	–	–	1.577 ± 0.05
278.15 K, m1 = 0.2554	–	1004.5 ± 0.25	–
278.15 K, m1 = 0.3505	–	–	1.601 ± 0.051
278.15 K, m1 = 0.4956	–	–	1.631 ± 0.052
278.15 K, m1 = 0.5004	–	1008.71 ± 0.27	–
278.15 K, m1 = 0.6473	–	–	1.695 ± 0.054
278.15 K, m1 = 0.6512	–	1011.01 ± 0.28	–
278.15 K, m1 = 0.7484	–	1012.68 ± 0.28	–
278.15 K, m1 = 0.7512	–	–	1.741 ± 0.055
278.15 K, m1 = 0.903	–	–	1.762 ± 0.056
278.15 K, m1 = 1.005	–	–	1.791 ± 0.057
278.15 K, m1 = 1.203	–	1019.28 ± 0.32	1.862 ± 0.059
278.15 K, m1 = 1.504	–	1022.75 ± 0.33	–
278.15 K, m1 = 1.506	–	–	1.936 ± 0.061
278.15 K, m1 = 1.99	–	–	2.077 ± 0.066
278.15 K, m1 = 1.992	–	1028.85 ± 0.37	–
288.15 K, m1 = 0.0293	–	–	1.151 ± 0.036
288.15 K, m1 = 0.054	–	1000.03 ± 0.23	–
288.15 K, m1 = 0.058	–	–	1.17 ± 0.037
288.15 K, m1 = 0.1087	–	1000.95 ± 0.23	–
288.15 K, m1 = 0.1113	–	–	1.164 ± 0.037
288.15 K, m1 = 0.2495	–	–	1.192 ± 0.038
288.15 K, m1 = 0.2554	–	1003.33 ± 0.25	–
288.15 K, m1 = 0.3505	–	–	1.211 ± 0.038
288.15 K, m1 = 0.4956	–	–	1.237 ± 0.039
288.15 K, m1 = 0.5004	–	1007.27 ± 0.26	–
288.15 K, m1 = 0.6473	–	–	1.287 ± 0.041
288.15 K, m1 = 0.6512	–	1009.43 ± 0.27	–
288.15 K, m1 = 0.7484	–	1011 ± 0.28	–
288.15 K, m1 = 0.7512	–	–	1.323 ± 0.042
288.15 K, m1 = 0.903	–	–	1.342 ± 0.043
288.15 K, m1 = 1.005	–	–	1.364 ± 0.043
288.15 K, m1 = 1.203	–	1017.23 ± 0.31	1.417 ± 0.045
288.15 K, m1 = 1.504	–	1020.5 ± 0.33	–
288.15 K, m1 = 1.506	–	–	1.476 ± 0.047
288.15 K, m1 = 1.99	–	–	1.587 ± 0.05
288.15 K, m1 = 1.992	–	1026.31 ± 0.36	–
298.15 K, m1 = 0.0272	0.279 ± 0.003	–	–
298.15 K, m1 = 0.0293	–	–	0.875 ± 0.028
298.15 K, m1 = 0.05	0.492 ± 0.005	–	–
298.15 K, m1 = 0.054	–	997.931 ± 0.23	–
298.15 K, m1 = 0.058	–	–	0.888 ± 0.028
298.15 K, m1 = 0.1	0.919 ± 0.01	–	–
298.15 K, m1 = 0.1087	–	998.81 ± 0.23	–
298.15 K, m1 = 0.1113	–	–	0.903 ± 0.029
298.15 K, m1 = 0.2495	–	–	0.908 ± 0.029
298.15 K, m1 = 0.25	2.03 ± 0.02	–	–
298.15 K, m1 = 0.2554	–	1001.09 ± 0.24	–
298.15 K, m1 = 0.35	2.67 ± 0.03	–	–
298.15 K, m1 = 0.3505	–	–	0.928 ± 0.029
298.15 K, m1 = 0.4956	–	–	0.95 ± 0.03
298.15 K, m1 = 0.5	3.55 ± 0.04	–	–
298.15 K, m1 = 0.5004	–	1004.84 ± 0.26	–
298.15 K, m1 = 0.6473	–	–	0.984 ± 0.031
298.15 K, m1 = 0.65	4.37 ± 0.05	–	–
298.15 K, m1 = 0.6512	–	1006.92 ± 0.27	–
298.15 K, m1 = 0.7484	–	1008.42 ± 0.28	–
298.15 K, m1 = 0.75	4.79 ± 0.05	–	–
298.15 K, m1 = 0.7512	–	–	1.009 ± 0.032
298.15 K, m1 = 0.9	5.44 ± 0.06	–	–
298.15 K, m1 = 0.903	–	–	1.023 ± 0.033
298.15 K, m1 = 1.005	–	–	1.043 ± 0.033
298.15 K, m1 = 1.203	–	1014.4 ± 0.31	1.082 ± 0.034
298.15 K, m1 = 1.205	6.54 ± 0.07	–	–
298.15 K, m1 = 1.504	–	1017.56 ± 0.33	–
298.15 K, m1 = 1.505	7.43 ± 0.08	–	–
298.15 K, m1 = 1.506	–	–	1.127 ± 0.036
298.15 K, m1 = 1.99	–	–	1.234 ± 0.039
298.15 K, m1 = 1.992	–	1023.16 ± 0.36	–
298.15 K, m1 = 1.994	8.53 ± 0.09	–	–
308.15 K, m1 = 0.0293	–	–	0.715 ± 0.023
308.15 K, m1 = 0.054	–	994.893 ± 0.23	–
308.15 K, m1 = 0.058	–	–	0.724 ± 0.023
308.15 K, m1 = 0.1087	–	995.745 ± 0.23	–
308.15 K, m1 = 0.1113	–	–	0.732 ± 0.023
308.15 K, m1 = 0.2495	–	–	0.746 ± 0.024
308.15 K, m1 = 0.2554	–	997.961 ± 0.24	–
308.15 K, m1 = 0.3505	–	–	0.757 ± 0.024
308.15 K, m1 = 0.4956	–	–	0.774 ± 0.025
308.15 K, m1 = 0.5004	–	1001.61 ± 0.26	–
308.15 K, m1 = 0.6473	–	–	0.811 ± 0.026
308.15 K, m1 = 0.6512	–	1003.63 ± 0.27	–
308.15 K, m1 = 0.7484	–	1005.09 ± 0.28	–
308.15 K, m1 = 0.7512	–	–	0.826 ± 0.026
308.15 K, m1 = 0.903	–	–	0.835 ± 0.027
308.15 K, m1 = 1.005	–	–	0.854 ± 0.027
308.15 K, m1 = 1.203	–	1010.92 ± 0.31	0.884 ± 0.028
308.15 K, m1 = 1.504	–	1014 ± 0.32	–
308.15 K, m1 = 1.506	–	–	0.921 ± 0.029
308.15 K, m1 = 1.99	–	–	1.007 ± 0.032
308.15 K, m1 = 1.992	–	1019.47 ± 0.35	–
318.15 K, m1 = 0.0293	–	–	0.633 ± 0.02
318.15 K, m1 = 0.054	–	991.063 ± 0.23	–
318.15 K, m1 = 0.058	–	–	0.61 ± 0.019
318.15 K, m1 = 0.1087	–	991.902 ± 0.23	–
318.15 K, m1 = 0.1113	–	–	0.623 ± 0.02
318.15 K, m1 = 0.2495	–	–	0.638 ± 0.02
318.15 K, m1 = 0.2554	–	994.085 ± 0.24	–
318.15 K, m1 = 0.3505	–	–	0.646 ± 0.021
318.15 K, m1 = 0.4956	–	–	0.656 ± 0.021
318.15 K, m1 = 0.5004	–	997.683 ± 0.26	–
318.15 K, m1 = 0.6473	–	–	0.694 ± 0.022
318.15 K, m1 = 0.6512	–	999.672 ± 0.27	–
318.15 K, m1 = 0.7484	–	1001.11 ± 0.27	–
318.15 K, m1 = 0.7512	–	–	0.69 ± 0.022
318.15 K, m1 = 0.903	–	–	0.702 ± 0.022
318.15 K, m1 = 1.005	–	–	0.721 ± 0.023
318.15 K, m1 = 1.203	–	1006.86 ± 0.3	0.747 ± 0.024
318.15 K, m1 = 1.504	–	1009.9 ± 0.32	–
318.15 K, m1 = 1.506	–	–	0.776 ± 0.025
318.15 K, m1 = 1.99	–	–	0.843 ± 0.027
318.15 K, m1 = 1.992	–	1015.31 ± 0.35	–
